Active and inactive are the calls of the source. The calls are words filed in the database; no cut-off is given here.
What was measured:
[1] = system: Human alphaherpesvirus 2; assay: Antiviral activity against HSV-2 333vhsB infected in African green monkey Vero cells assessed as inhibition of viral replication by measuring reduction in virus-induced cytopathic effect at 50 uM incubated for 20 hrs by colorimetric analysis; assay type: functional, organism-based
[2] = system: Human alphaherpesvirus 2; assay: (§1) Antiviral activity against HSV-2 infected in African green monkey Vero cells assessed as inhibition of viral replication by measuring log suppression of virus-induced cytopathic effect at 5 uM incubated for 1 hr followed by washing with PBS and subsequent treatment with compound for 24 hrs by plaque assay; assay type: functional; settings: time 25 hrs
[3] = system: Human alphaherpesvirus 2; assay: as §1, with “1” for “5”; assay type: functional; settings: time 25 hrs
[4] = system: Human alphaherpesvirus 1; assay: as §1, with “HSV-1” for “HSV-2”; assay type: functional; settings: time 25 hrs
[5] = system: Human alphaherpesvirus 1; assay: as §1, with “HSV-1” for “HSV-2”, “1” for “5”; assay type: functional; settings: time 25 hrs
[6] = system: Human alphaherpesvirus 2; assay: Antiviral activity against HSV-2 infected in African green monkey Vero cells assessed as inhibition of viral replication incubated for 1 hr followed by washing with PBS and subsequent treatment with compound for 24 hrs by plaque reduction assay; assay type: functional, organism-based; settings: Human alphaherpesvirus 2, Vero
[7] = system: Vero; assay: Cytotoxicity against African green monkey Vero cells assessed as reduction in cell viability incubated for 24 hrs by MTS assay; settings: chlorocebus sabaeus
[8] = Cytotoxicity against human HepDES19 cells assessed as reduction in cell viability incubated for 72 hrs by MTS assay; assay type: toxicity, cell-based; settings: hepdes19, 72 h
[9] = system: Human alphaherpesvirus 2; assay: Antiviral activity against wild-type HSV-2 186 infected in African green monkey Vero cells assessed as inhibition of viral replication incubated for 1 hr followed by washing with PBS and subsequent treatment with compound for 24 hrs by plaque reduction assay; assay type: functional, organism-based; settings: Human alphaherpesvirus 2, 186, Vero
[10] = system: Human alphaherpesvirus 2; assay: Antiviral activity against thymidine kinase-deficient ACV-resistant HSV-2 186 TKdeltakpn infected in African green monkey Vero cells assessed as inhibition of viral replication incubated for 1 hr followed by washing with PBS and subsequent treatment with compound for 24 hrs by plaque reduction assay; assay type: functional, organism-based; settings: Human alphaherpesvirus 2, 186 TKdeltakpn
[11] = Half life in mouse liver microsomes at 2 uM in presence of NADPH by LC/MS/MS analysis; assay type: ADME, Microsome
[12] = Half life in human liver microsomes at 2 uM in presence of NADPH by LC/MS/MS analysis; assay type: ADME, Microsome
[13] = Apparent permeability of the compound across apical to basolateral side in human Caco-2 cells at 10 uM incubated for 2 hrs; assay type: ADME, cell-based; settings: caco-2, 2 h
[14] = Half-life in BALB/c mouse at 3 mg/kg, po and 1 mg/kg, iv by LC/MS/MS analysis; assay type: ADME, organism-based; settings: in vivo
[15] = Oral bioavailability in BALB/c mouse at 3 mg/kg by LC/MS/MS analysis; assay type: ADME, organism-based; settings: in vivo
[16] = system: Human alphaherpesvirus 1; assay: Antiviral activity against HSV-1 infected in African green monkey Vero cells assessed as inhibition of viral replication incubated for 1 hr followed by washing with PBS and subsequent treatment with compound for 24 hrs by plaque reduction assay; assay type: functional, organism-based; settings: Human alphaherpesvirus 1, Vero

Which results are given for `Cc1cc(Cc2cccc3ccccc23)n(O)c(=O)c1`?
Activity [1]: Active; log(activity) [2]: 4.33; log(activity) [3]: 3.12; log(activity) [4]: 4.81; log(activity) [5]: 2.99; EC50 [6]: 220 nM; CC50 [7]: 93100 nM; CC50 [8]: 25000 nM; EC50 [9]: < 300 nM; EC50 [10]: < 300 nM; t1/2 [11]: < 5 min; t1/2 [12]: < 5 min; Papp [13]: 6.46 10^-6 cm/s; t1/2 [14]: < 60 min; bioavailability [15]: 10%

Which “log(activity)” value [2] does the source give for `Cc1cc(C2CCCCC2)n(O)c(=O)c1` [CICLOPIROX] here?
The value was 5.5.

What about the “log(activity)” value [3] of the same compound?
The value was 2.6.

What about the “log(activity)” value [4] of the same compound?
The value was 4.62.

And the “log(activity)” value [5]?
Its value is 1.66.

What about the EC50 [16] of the same compound?
The EC50 was 270 nM.

What about the EC50 [6] of the same compound?
The EC50 was 500 nM.

And the CC50 [7]?
Its CC50 is greater than 100000 nM.

What about the CC50 [8] of the same compound?
Its CC50 is 13000 nM.

And the EC50 [9]?
The EC50 was less than 300 nM.

What about the EC50 [10] of the same compound?
The EC50 was less than 300 nM.

What does the source list for `Cc1cc(Cc2ccc(-c3ccccc3)cc2)n(O)c(=O)c1`?
Activity [1]: Active; log(activity) [2]: 4.6; log(activity) [3]: 3.09; log(activity) [4]: 4.74; log(activity) [5]: 4.37; EC50 [16]: 210 nM; EC50 [6]: 140 nM; CC50 [8]: 12000 nM; EC50 [9]: < 300 nM; EC50 [10]: < 300 nM; t1/2 [11]: < 5 min; t1/2 [12]: < 5 min; Papp [13]: 1.35 10^-6 cm/s; t1/2 [14]: < 60 min; bioavailability [15]: 10%

Reference: ChEMBL document CHEMBL5137030 (Eur J Med Chem, 2022)
